{
  "source": "paper PMC10248530",
  "about": "“Screening the Thermotoga maritima genome for new wide-spectrum nucleoside and nucleotide kinases” (The Journal of Biological Chemistry, 2023)",
  "assay_type_in_all_cases": "biochemical",
  "key": {"TmGMPK": {"target": "T1, TmGMPK (Thermotoga maritima, UniProt Q9X215)", "T1 construct": "gene gmk; synthetic gene, full length, expressed in E. coli, 80 °C heat step and Ni-NTA; tag not described", "T1 sequence (Q9X215 1-207)": "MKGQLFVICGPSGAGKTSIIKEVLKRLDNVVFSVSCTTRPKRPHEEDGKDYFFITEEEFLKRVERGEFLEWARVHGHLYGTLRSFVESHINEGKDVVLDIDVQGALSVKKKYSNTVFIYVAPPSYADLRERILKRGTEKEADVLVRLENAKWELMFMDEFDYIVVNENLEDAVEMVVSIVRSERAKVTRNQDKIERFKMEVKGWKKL", "experiment": "TLC or HPLC, […] h cascade", "conditions": "1 mM NMP, 1.2 mM ATP, 5 mM acetyl phosphate with TmAcK (ATP regeneration), 10 mM MgCl2, pH 7.6, 37 °C"}, "TmPK": {"target": "T2, TmPK (Thermotoga maritima, UniProt Q9WY51)", "T2 construct": "gene pyk; synthetic gene, full length, expressed in E. coli, 80 °C heat step and Ni-NTA; tag not described", "T2 sequence (Q9WY51 1-466)": "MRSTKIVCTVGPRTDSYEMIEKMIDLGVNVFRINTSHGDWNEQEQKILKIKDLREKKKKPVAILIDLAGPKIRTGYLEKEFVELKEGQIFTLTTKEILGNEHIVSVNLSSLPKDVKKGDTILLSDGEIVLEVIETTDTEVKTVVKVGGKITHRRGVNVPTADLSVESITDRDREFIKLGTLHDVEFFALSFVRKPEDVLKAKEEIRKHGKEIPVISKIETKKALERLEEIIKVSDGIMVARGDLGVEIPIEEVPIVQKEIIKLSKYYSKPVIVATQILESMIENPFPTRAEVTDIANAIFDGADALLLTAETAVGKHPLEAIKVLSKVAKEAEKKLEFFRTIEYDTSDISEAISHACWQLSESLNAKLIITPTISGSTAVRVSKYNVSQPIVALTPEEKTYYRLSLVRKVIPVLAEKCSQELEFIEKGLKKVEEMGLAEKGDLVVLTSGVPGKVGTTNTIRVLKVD", "experiment": "HPLC conversion, […] h", "conditions": "1 mM substrate, 1.2 mM phosphoenolpyruvate, 2 mM MgCl2, 50 mM KCl, pH 7.6, 37 °C"}, "TmUMPK": {"target": "T3, TmUMPK (Thermotoga maritima, UniProt Q9X1U0)", "T3 construct": "gene pyrH; synthetic gene, full length, expressed in E. coli, 80 °C heat step and Ni-NTA; tag not described", "T3 sequence (Q9X1U0 1-231)": "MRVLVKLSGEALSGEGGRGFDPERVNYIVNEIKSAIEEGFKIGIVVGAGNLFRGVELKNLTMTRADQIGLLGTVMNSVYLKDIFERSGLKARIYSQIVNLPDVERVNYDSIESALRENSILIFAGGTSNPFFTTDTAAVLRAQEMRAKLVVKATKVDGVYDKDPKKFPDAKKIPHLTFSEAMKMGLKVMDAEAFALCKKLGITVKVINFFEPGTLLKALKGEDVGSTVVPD", "experiment": "HPLC conversion, […] h", "conditions": "1 mM substrate, 1.2 mM ATP, 2 mM MgCl2, 50 mM KCl, 5 mM DTT, Tris pH 7.6, 37 °C"}, "TmAcK": {"target": "T4, TmAcK (Thermotoga maritima, UniProt Q9WYB1)", "T4 construct": "gene ackA; synthetic gene, full length, expressed in E. coli, 80 °C heat step and Ni-NTA; tag not described", "T4 sequence (Q9WYB1 1-403)": "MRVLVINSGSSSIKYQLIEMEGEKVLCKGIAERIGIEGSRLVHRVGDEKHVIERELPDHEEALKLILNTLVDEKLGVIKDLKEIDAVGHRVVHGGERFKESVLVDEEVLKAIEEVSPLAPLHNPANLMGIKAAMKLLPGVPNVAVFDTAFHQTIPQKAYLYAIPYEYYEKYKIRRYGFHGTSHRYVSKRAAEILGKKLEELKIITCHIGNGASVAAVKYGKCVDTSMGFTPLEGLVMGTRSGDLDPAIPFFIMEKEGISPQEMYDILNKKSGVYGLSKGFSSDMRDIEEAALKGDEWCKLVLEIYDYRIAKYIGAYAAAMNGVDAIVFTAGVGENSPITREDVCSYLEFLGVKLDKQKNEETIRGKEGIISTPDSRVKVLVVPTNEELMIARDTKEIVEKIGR", "experiment": "HPLC conversion, […] h", "conditions": "1 mM substrate, 1.2 mM acetyl phosphate, 2 mM MgCl2, 50 mM KCl, pH 7.6, 37 °C"}, "Tm(d)CMPK": {"target": "T5, Tm(d)CMPK (Thermotoga maritima, UniProt Q9X1F6)", "T5 construct": "gene cmk; synthetic gene, full length, expressed in E. coli, 80 °C heat step and Ni-NTA; tag not described", "T5 sequence (Q9X1F6 1-220)": "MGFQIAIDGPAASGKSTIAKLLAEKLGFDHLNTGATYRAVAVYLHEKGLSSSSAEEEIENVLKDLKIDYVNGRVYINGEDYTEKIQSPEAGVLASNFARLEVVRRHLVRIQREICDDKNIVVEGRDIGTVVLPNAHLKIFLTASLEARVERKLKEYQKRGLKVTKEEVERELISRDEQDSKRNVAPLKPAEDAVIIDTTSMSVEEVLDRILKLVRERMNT", "experiment": "TLC or HPLC, […] h cascade", "conditions": "1 mM NMP, 1.2 mM ATP, 5 mM acetyl phosphate with TmAcK (ATP regeneration), 10 mM MgCl2, pH 7.6, 37 °C"}, "TmTK": {"target": "T6, TmTK (Thermotoga maritima, UniProt Q9WYN2)", "T6 construct": "gene tdk; synthetic gene, full length, expressed in E. coli, 80 °C heat step and Ni-NTA; tag not described", "T6 sequence (Q9WYN2 whole entry)": "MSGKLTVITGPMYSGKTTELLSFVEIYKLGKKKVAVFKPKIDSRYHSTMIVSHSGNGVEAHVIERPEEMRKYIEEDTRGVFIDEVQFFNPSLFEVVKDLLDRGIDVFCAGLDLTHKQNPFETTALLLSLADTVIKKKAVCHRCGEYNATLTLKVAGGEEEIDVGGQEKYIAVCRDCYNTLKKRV", "experiment": "HPLC conversion, […] h", "conditions": "1 mM substrate, 1.2 mM ATP, 2 mM MgCl2, 50 mM KCl, 5 mM DTT, Tris pH 7.6, 37 °C"}, "TmRK": {"target": "T7, TmRK (Thermotoga maritima, UniProt Q9X055)", "T7 construct": "gene rbsK; synthetic gene, full length, expressed in E. coli, 80 °C heat step and Ni-NTA; tag not described; PfkB family", "T7 sequence (Q9X055 1-299)": "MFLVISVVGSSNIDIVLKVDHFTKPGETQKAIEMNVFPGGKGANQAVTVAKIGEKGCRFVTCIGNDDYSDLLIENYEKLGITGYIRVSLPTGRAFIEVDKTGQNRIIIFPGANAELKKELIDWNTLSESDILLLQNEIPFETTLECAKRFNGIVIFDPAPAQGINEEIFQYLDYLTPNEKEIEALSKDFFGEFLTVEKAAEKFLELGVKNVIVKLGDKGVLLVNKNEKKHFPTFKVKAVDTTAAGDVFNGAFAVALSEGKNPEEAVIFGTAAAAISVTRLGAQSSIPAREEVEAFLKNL", "experiment": "HPLC conversion, […] h", "conditions": "1 mM substrate, 1.2 mM ATP, 2 mM MgCl2, 50 mM KCl, 5 mM DTT, Tris pH 7.6, 37 °C"}, "TmAMPK": {"target": "T8, TmAMPK (Thermotoga maritima, UniProt Q9X1I8)", "T8 construct": "gene adk; synthetic gene, full length, expressed in E. coli, 80 °C heat step and Ni-NTA; tag not described", "T8 sequence (Q9X1I8 1-220)": "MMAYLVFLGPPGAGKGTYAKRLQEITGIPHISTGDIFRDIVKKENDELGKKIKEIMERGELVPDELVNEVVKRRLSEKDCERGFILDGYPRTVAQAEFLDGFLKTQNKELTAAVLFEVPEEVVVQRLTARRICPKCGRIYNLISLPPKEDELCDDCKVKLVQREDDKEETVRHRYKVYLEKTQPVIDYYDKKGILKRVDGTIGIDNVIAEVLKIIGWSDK", "experiment": "TLC or HPLC, […] h cascade", "conditions": "1 mM NMP, 1.2 mM ATP, 5 mM acetyl phosphate with TmAcK (ATP regeneration), 10 mM MgCl2, pH 7.6, 37 °C"}},
  "data": [
    {"smiles": "Nc1ncnc2c1ncn2[C@@H]1O[C@H](COP(=O)(O)O)[C@@H](O)[C@@H]1O", "note": "[vidarabine phosphate]", "values": [
      {"measurement": "TLC or HPLC, 19 h cascade", "setting": "TmGMPK", "value": "TmGMPK phosphorylated the sugar-modified NMPs araGMP, vidarabine phosphate, and araUMP"}
    ]},
    {"smiles": "Nc1nc2c(ncn2[C@@H]2O[C@H](COP(=O)(O)OP(=O)(O)O)[C@@H](O)[C@H]2O)c(=O)[nH]1", "note": "[guanosine 5′-diphosphate]", "values": [
      {"measurement": "HPLC conversion, 19 h", "setting": "TmPK", "value": "TmPK and TmAcK accepted all natural riboNDPs and deoxyriboNDPs"}
    ]},
    {"smiles": "O=c1ccn([C@@H]2O[C@H](COP(=O)(O)O)[C@@H](O)[C@H]2O)c(=O)[nH]1", "note": "[uridine 5′-monophosphate]", "values": [
      {"measurement": "HPLC conversion, 19 h", "setting": "TmUMPK", "value": "TmUMPK which accepted all natural riboNMPs"}
    ]},
    {"smiles": "O=c1ccn([C@@H]2O[C@H](COP(=O)(O)OP(=O)(O)O)[C@@H](O)[C@H]2O)c(=O)[nH]1", "note": "[uridine 5′-diphosphate]", "values": [
      {"measurement": "HPLC conversion, 19 h", "setting": "TmAcK", "value": "TmPK and TmAcK accepted all natural riboNDPs and deoxyriboNDPs"}
    ]},
    {"smiles": "Nc1ccn([C@@H]2O[C@H](COP(=O)(O)O)[C@@H](O)[C@@H]2O)c(=O)n1", "note": "[cytarabine phosphate]", "values": [
      {"measurement": "TLC or HPLC, 19 h cascade", "setting": "Tm(d)CMPK", "value": "Tm(d)CMPK converted the sugar-modified substrates araCMP, araGMP, and araUMP"}
    ]},
    {"smiles": "Cc1cn([C@H]2C[C@H](O)[C@@H](CO)O2)c(=O)[nH]c1=O", "note": "[thymidine]", "values": [
      {"measurement": "HPLC conversion, 19 h", "setting": "TmTK", "value": "TmTK accepted all deoxynucleosides and uridine"},
      {"measurement": "HPLC conversion, 19 h", "setting": "TmRK", "value": "it phosphorylates the natural nucleosides thymidine and uridine"}
    ]},
    {"smiles": "O=c1ccn([C@@H]2O[C@H](CO)[C@@H](O)[C@H]2O)c(=O)[nH]1", "note": "[uridine]", "values": [
      {"measurement": "HPLC conversion, 19 h", "setting": "TmTK", "value": "TmTK accepted all deoxynucleosides and uridine"},
      {"measurement": "HPLC conversion, 19 h", "setting": "TmRK", "value": "it phosphorylates the natural nucleosides thymidine and uridine"}
    ]},
    {"smiles": "Nc1nc(F)nc2c1ncn2[C@@H]1O[C@H](COP(=O)(O)O)[C@@H](O)[C@@H]1O", "note": "[fludarabine phosphate]", "values": [
      {"measurement": "TLC or HPLC, 19 h cascade", "setting": "TmAMPK", "value": "For TmAMPK, NTP formation was observed for all AMP analogs"}
    ]},
    {"smiles": "Nc1ccn([C@@H]2O[C@H](COP(=O)(O)O)[C@@H](O)[C@H]2O)c(=O)n1", "note": "[cytidine 5′-monophosphate]", "values": [
      {"measurement": "HPLC conversion, 19 h", "setting": "TmUMPK", "value": "TmUMPK which accepted all natural riboNMPs"}
    ]}
  ]
}
